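Method: 48-hour compound exposure of cells in 96-well plates, five concentrations, linear interpolation of endpoints. The concentration for 50% growth inhibition is given as GI50.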 Calls of active or inactive are those of the source. Cut-off read from the data, not from the text of the source: active = GI50 up to about 1.1 µM and inactive = higher.
How the values were obtained:
Test in all cases: inhibition of tumour cell growth, NCI panel, 48 h
MDA-N = test system: MDA-N
UACC-62 = test system: UACC-62
OVCAR-8 = test system: OVCAR-8
SN12C = test system: SN12C
HT-29 = test system: HT-29
PC-3 = test system: PC-3
SW-620 = test system: SW-620
TK-10 = test system: TK-10
ACHN = test system: ACHN
NCI/ADR-RES = test system: NCI/ADR-RES
Hs-578T = test system: Hs-578T
CCRF-CEM = test system: CCRF-CEM
M14 = test system: M14
UACC-257 = test system: UACC-257
T47D = test system: T47D
MCF7 = test system: MCF7
HCT-116 = test system: HCT-116
SF-539 = test system: SF-539
U-251 = test system: U-251
NCI-H23 = test system: NCI-H23
IGROV-1 = test system: IGROV-1
786-0 = test system: 786-0
SK-MEL-5 = test system: SK-MEL-5
SNB-75 = test system: SNB-75
KM12 = test system: KM12
MDA-MB-231 = test system: MDA-MB-231
A498 = test system: A498
SK-MEL-28 = test system: SK-MEL-28
OVCAR-3 = test system: OVCAR-3
BT-549 = test system: BT-549
K562 = test system: K562
MOLT-4 = test system: MOLT-4
NCI-H460 = test system: NCI-H460
SF-268 = test system: SF-268
CAKI-1 = test system: CAKI-1
NCI-H226 = test system: NCI-H226
OVCAR-5 = test system: OVCAR-5
HL-60 = test system: HL-60
A549 = test system: A549
SF-295 = test system: SF-295
COLO 205 = test system: COLO 205
RXF 393 = test system: RXF 393
SNB-19 = test system: SNB-19
HOP-62 = test system: HOP-62
HCT-15 = test system: HCT-15
SR = test system: SR
EKVX = test system: EKVX
MDA-MB-435 = test system: MDA-MB-435
DU-145 = test system: DU-145
UO-31 = test system: UO-31
SK-MEL-2 = test system: SK-MEL-2
RPMI-8226 = test system: RPMI-8226
SK-OV-3 = test system: SK-OV-3
NCI-H522 = test system: NCI-H522
LOX IMVI = test system: LOX IMVI
HCC 2998 = test system: HCC 2998
Malme-3M = test system: Malme-3M

## Cn1ncc2[nH]cnc2c1=S
MDA-N
  GI50: > 100 µM (inactive)
UACC-62
  GI50: > 100 µM (inactive)
OVCAR-8
  GI50: > 100 µM (inactive)
SN12C
  GI50: > 100 µM (inactive)
HT-29
  GI50: 57.7 µM (inactive)
PC-3
  GI50: > 100 µM (inactive)
SW-620
  GI50: > 100 µM (inactive)
TK-10
  GI50: > 100 µM (inactive)
ACHN
  GI50: > 100 µM (inactive)
NCI/ADR-RES
  GI50: > 100 µM (inactive)
Hs-578T
  GI50: > 100 µM (inactive)
CCRF-CEM
  GI50: 19.8 µM (inactive)
M14
  GI50: > 100 µM (inactive)
UACC-257
  GI50: > 100 µM (inactive)
T47D
  GI50: > 100 µM (inactive)
MCF7
  GI50: 79.3 µM (inactive)
HCT-116
  GI50: > 100 µM (inactive)
SF-539
  GI50: > 100 µM (inactive)
U-251
  GI50: > 100 µM (inactive)
NCI-H23
  GI50: > 100 µM (inactive)
IGROV-1
  GI50: > 100 µM (inactive)
786-0
  GI50: > 100 µM (inactive)
SK-MEL-5
  GI50: 82.4 µM (inactive)
SNB-75
  GI50: 86.1 µM (inactive)
KM12
  GI50: > 100 µM (inactive)
MDA-MB-231
  GI50: > 100 µM (inactive)
A498
  GI50: > 100 µM (inactive)
SK-MEL-28
  GI50: > 100 µM (inactive)
OVCAR-3
  GI50: > 100 µM (inactive)
BT-549
  GI50: > 100 µM (inactive)
K562
  GI50: 50.7 µM (inactive)
MOLT-4
  GI50: 43.8 µM (inactive)
NCI-H460
  GI50: > 100 µM (inactive)
SF-268
  GI50: > 100 µM (inactive)
CAKI-1
  GI50: > 100 µM (inactive)
NCI-H226
  GI50: > 100 µM (inactive)
OVCAR-5
  GI50: > 100 µM (inactive)
HL-60
  GI50: 0.541 µM (active)
A549
  GI50: > 100 µM (inactive)
SF-295
  GI50: > 100 µM (inactive)
COLO 205
  GI50: 47.5 µM (inactive)
RXF 393
  GI50: > 100 µM (inactive)
SNB-19
  GI50: > 100 µM (inactive)
HOP-62
  GI50: > 100 µM (inactive)
HCT-15
  GI50: > 100 µM
SR
  GI50: 26.7 µM (inactive)
EKVX
  GI50: > 100 µM (inactive)
MDA-MB-435
  GI50: > 100 µM (inactive)
DU-145
  GI50: > 100 µM (inactive)
UO-31
  GI50: > 100 µM (inactive)
SK-MEL-2
  GI50: > 100 µM (inactive)
RPMI-8226
  GI50: 34.8 µM (inactive)

## Cc1c(C#N)c(N)n(C2OCC(O)C(O)C2O)c(=S)c1C#N (stereo not given)
MDA-N
  GI50: > 100 µM (inactive)
UACC-62
  GI50: > 100 µM (inactive)
OVCAR-8
  GI50: > 100 µM (inactive)
SN12C
  GI50: > 100 µM (inactive)
HT-29
  GI50: > 100 µM (inactive)
PC-3
  GI50: > 100 µM (inactive)
SW-620
  GI50: > 100 µM (inactive)
TK-10
  GI50: > 100 µM (inactive)
ACHN
  GI50: > 100 µM (inactive)
NCI/ADR-RES
  GI50: > 100 µM (inactive)
SK-OV-3
  GI50: > 100 µM (inactive)
NCI-H522
  GI50: > 100 µM (inactive)
Hs-578T
  GI50: 24.5 µM (inactive)
LOX IMVI
  GI50: > 100 µM (inactive)
CCRF-CEM
  GI50: > 100 µM (inactive)
M14
  GI50: > 100 µM (inactive)
HCC 2998
  GI50: > 100 µM (inactive)
UACC-257
  GI50: > 100 µM (inactive)
T47D
  GI50: > 100 µM (inactive)
MCF7
  GI50: > 100 µM (inactive)
SF-539
  GI50: > 100 µM (inactive)
NCI-H23
  GI50: > 100 µM (inactive)
IGROV-1
  GI50: > 100 µM (inactive)
786-0
  GI50: > 100 µM (inactive)
SK-MEL-5
  GI50: > 100 µM (inactive)
SNB-75
  GI50: 83.4 µM (inactive)
Malme-3M
  GI50: > 100 µM (inactive)
KM12
  GI50: > 100 µM (inactive)
MDA-MB-231
  GI50: > 100 µM (inactive)
A498
  GI50: > 100 µM (inactive)
SK-MEL-28
  GI50: > 100 µM (inactive)
OVCAR-3
  GI50: > 100 µM (inactive)
BT-549
  GI50: > 100 µM (inactive)
K562
  GI50: > 100 µM (inactive)
MOLT-4
  GI50: > 100 µM (inactive)
NCI-H460
  GI50: > 100 µM (inactive)
SF-268
  GI50: > 100 µM (inactive)
CAKI-1
  GI50: > 100 µM (inactive)
NCI-H226
  GI50: > 100 µM (inactive)
OVCAR-5
  GI50: > 100 µM (inactive)
HL-60
  GI50: > 100 µM (inactive)
A549
  GI50: > 100 µM (inactive)
SF-295
  GI50: > 100 µM (inactive)
RXF 393
  GI50: > 100 µM (inactive)
SNB-19
  GI50: > 100 µM (inactive)
HOP-62
  GI50: > 100 µM (inactive)
HCT-15
  GI50: > 100 µM
SR
  GI50: > 100 µM (inactive)
MDA-MB-435
  GI50: > 100 µM (inactive)
DU-145
  GI50: > 100 µM (inactive)
UO-31
  GI50: > 100 µM (inactive)
SK-MEL-2
  GI50: 21.4 µM (inactive)
RPMI-8226
  GI50: > 100 µM (inactive)
